The series has as its system Hela cancer cells. As to the kind of experiment: Toxicity evaluation: cell density of Hela cancer cells cultured with FA (folic acid)-modified particles. In kind it is cell-based. As to conditions: FA-modified particles on Hela cells, FIG. 9. Here is the method:
Particles of Examples 1 to 3 or Comparative Examples 1 to 2 were subjected to toxicity evaluation by cancer cell imaging and fluorescence intensity measurement by the following methods.
To 250 mg of the particles of Examples 1 to 3 or Comparative Examples 1 to 2, 12 ml of an HCl aqueous solution (pH=2) was added, and ultrasonic treatment was carried out. Next, a solution containing 0.78 ml (3.3 mmol) of 3-aminopropyltriethoxysilane (APTES) in 5 mL of ethanol was prepared and added to the ultrasonic-treated solution to obtain a mixed solution. The mixed solution was stirred for 20 hours at 40° C. (pH<6.5). […]
After the above cells were cultured, a polystyrene dish (TCPS) including cells was washed twice with 1 ml of phosphate buffered saline (PBS), then FA (folic acid)-modified particles which had not taken up by the cells were removed, 0.1 ml of 0.05% Trypsin-EDTA was placed in a TCPS including cells, followed by allowing to stand still in a CO2 incubator for 12 minutes, and cells were peeled off from TCPS. […] Thereafter, the supernatant was discarded, 20 ml of medium was added to the tube, pipetting was carried out about 20 times, 1 ml was aliquoted into 15 ml-tubes, the cell suspension was placed into a disposable hemocytometer using a micropipette outside a clean bench, the cell number was confirmed under a microscope, and the average value (cell/cm^2) was calculated. […]

The values below come from US12276039B2, “Crystal of europium compound and method for producing crystal of europium compound” (OHARA INC., priority 2020, dated 2025).

In the case of `O.O.O.O.O.O.[Cl][Eu]([Cl])[Cl]` [Comparative Example 2, Europium chloride hexahydrate], the cytotoxicity entry is given as “cytotoxicity due to the elution”. The “cell proliferation behavior (average cell density)” value (3, 12, 24, 36 and 48 hours after spraying) is listed as “a normal cell proliferation behavior was not observed”.
